Reference: ChEMBL document CHEMBL1201862, “PubChem BioAssay data set” (2004)
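1) Cells in 96-well plates. 2) Compound, 48 h, 5 concentrations. 3) Linear interpolation between surrounding doses. 4) Unreached endpoint = highest concentration. The concentration for 50% growth inhibition is given as GI50.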 Activity calls are given as the source filed them. Cut-off read from the data, not from the text of the source: active = GI50 up to about 1.1 µM and inactive = higher.

Assays:
Test in all cases: growth of human tumour cells (NCI), 48 h
KM12 = tested on: KM12
OVCAR-3 = tested on: OVCAR-3
TK-10 = tested on: TK-10
OVCAR-8 = tested on: OVCAR-8
NCI-H522 = tested on: NCI-H522
Malme-3M = tested on: Malme-3M
DMS-273 = tested on: DMS-273
EKVX = tested on: EKVX
DMS-114 = tested on: DMS-114
NCI-H23 = tested on: NCI-H23
HCT-15 = tested on: HCT-15
SK-MEL-28 = tested on: SK-MEL-28
NCI-H460 = tested on: NCI-H460
SNB-78 = tested on: SNB-78
UACC-62 = tested on: UACC-62
SNB-19 = tested on: SNB-19
SF-539 = tested on: SF-539
LOX IMVI = tested on: LOX IMVI
M19-MEL = tested on: M19-MEL
XF498 = tested on: XF498

| SMILES | GI50 (KM12) | GI50 (OVCAR-3) | GI50 (TK-10) | GI50 (OVCAR-8) | GI50 (NCI-H522) | GI50 (Malme-3M) | GI50 (DMS-273) | GI50 (EKVX) | GI50 (DMS-114) | GI50 (NCI-H23) | GI50 (HCT-15) | GI50 (SK-MEL-28) | GI50 (NCI-H460) | GI50 (SNB-78) | GI50 (UACC-62) | GI50 (SNB-19) | GI50 (SF-539) | GI50 (LOX IMVI) | GI50 (M19-MEL) | GI50 (XF498) |
| --- | --- | --- | --- | --- | --- | --- | --- | --- | --- | --- | --- | --- | --- | --- | --- | --- | --- | --- | --- | --- |
| Cc1[nH]c2ccccc2c1C1Cc2ccccc2N1C(=O)/C=C/C=C/c1ccccc1 (configuration not stated) | > 100 µM (inactive) | 13.1 µM (inactive) | > 100 µM (inactive) | > 100 µM (inactive) | > 100 µM (inactive) | > 100 µM (inactive) | > 100 µM (inactive) | > 100 µM (inactive) | > 100 µM (inactive) | > 100 µM (inactive) | > 100 µM | > 100 µM (inactive) | > 100 µM (inactive) | > 100 µM (inactive) | > 100 µM (inactive) | > 100 µM (inactive) | > 100 µM (inactive) | > 100 µM (inactive) | > 100 µM (inactive) | – |
| CCCN1CN(C(C(=O)N[C@@H]2C(=O)N3C2SC(C)(C)C3C(=O)O)c2ccc(O)cc2)CSC1=S (some centres not stated) | > 100 µM (inactive) | 23.6 µM (inactive) | > 100 µM (inactive) | > 100 µM (inactive) | 22.6 µM (inactive) | > 100 µM (inactive) | > 100 µM (inactive) | > 100 µM (inactive) | 19.1 µM (inactive) | > 100 µM (inactive) | > 100 µM | > 100 µM (inactive) | > 100 µM (inactive) | – | > 100 µM (inactive) | > 100 µM (inactive) | > 100 µM (inactive) | 97.9 µM (inactive) | > 100 µM (inactive) | > 100 µM (inactive) |
| CC(CC(=O)Nc1ccc(NC(=O)CC(C)/N=N\C(N)=O)cc1)/N=N\C(N)=O (configuration not stated) | > 100 µM (inactive) | > 100 µM (inactive) | > 100 µM (inactive) | > 100 µM (inactive) | > 100 µM (inactive) | > 100 µM (inactive) | 41.6 µM (inactive) | > 100 µM (inactive) | 15.6 µM (inactive) | > 100 µM (inactive) | 16.4 µM | > 100 µM (inactive) | 50.9 µM (inactive) | – | > 100 µM (inactive) | > 100 µM (inactive) | > 100 µM (inactive) | 24.7 µM (inactive) | > 100 µM (inactive) | > 100 µM (inactive) |
| O=C1OC(O)C(Oc2ccc(Cl)cc2)=C1Cl (configuration not stated) | > 100 µM (inactive) | > 100 µM (inactive) | > 100 µM (inactive) | > 100 µM (inactive) | > 100 µM (inactive) | > 100 µM (inactive) | > 100 µM (inactive) | > 100 µM (inactive) | 39.1 µM (inactive) | > 100 µM (inactive) | > 100 µM | > 100 µM (inactive) | > 100 µM (inactive) | > 100 µM (inactive) | > 100 µM (inactive) | > 100 µM (inactive) | > 100 µM (inactive) | > 100 µM (inactive) | > 100 µM (inactive) | – |
| COC1CC(n2cnc3c(N)ncnc32)OC1CO (configuration not stated) | > 100 µM (inactive) | > 100 µM (inactive) | > 100 µM (inactive) | > 100 µM (inactive) | > 100 µM (inactive) | > 100 µM (inactive) | > 100 µM (inactive) | – | > 100 µM (inactive) | 81.5 µM (inactive) | > 100 µM | > 100 µM (inactive) | > 100 µM (inactive) | – | > 100 µM (inactive) | > 100 µM (inactive) | > 100 µM (inactive) | – | > 100 µM (inactive) | > 100 µM (inactive) |
| CCCC(=O)N[C@@H](Cc1cc(I)c(O)c(I)c1)C(=O)NCCCNCCCCNCCCNC(=O)[C@@H](N)CCCN=C(N)N | 55 µM (inactive) | > 100 µM (inactive) | > 100 µM (inactive) | > 100 µM (inactive) | 11.2 µM (inactive) | > 100 µM (inactive) | 27.4 µM (inactive) | > 100 µM (inactive) | > 100 µM (inactive) | 31.4 µM (inactive) | > 100 µM | 50.4 µM (inactive) | 34.2 µM (inactive) | – | 44.9 µM (inactive) | > 100 µM (inactive) | 10.4 µM (inactive) | 94 µM (inactive) | 40.1 µM (inactive) | > 100 µM (inactive) |
